The term MIC denotes the lowest concentration that inhibits growth of the organism. A higher MIC goes with a less susceptible organism.

For series [1], the system named is Pseudomonas aeruginosa. Nature of the series: Antibacterial activity against Pseudomonas aeruginosa at 100 ug/ml by agar cup-plate method. It counts as functional. Particulars: read-out: IZ.
In series [2] the test system is Pseudomonas. The series is described as follows: Antibacterial activity against […] at 100 ug/ml by agar cup-plate method. Format: functional. The settings on record: read-out: IZ.
The test system of series [3] is Escherichia coli. The series is described as follows: Antibacterial activity against Escherichia coli at 100 ug/ml by agar cup-plate method. Format: functional. The settings on record: read-out: IZ.
The next series is filed under the species Mus musculus. Nature of the series: Toxicity in Mus musculus (mouse) assessed as irritation. It counts as organism-based. Particulars: in vivo.
Series [4] concerns Staphylococcus aureus. The series is described as follows: Antibacterial activity against Staphylococcus aureus at 100 ug/ml by agar cup-plate method. Format: functional. Particulars: read-out: IZ.
Series [5] concerns Staphylococcus aureus. Nature of the series: Antibacterial activity against Staphylococcus aureus after 24 hr by broth dilution method. It counts as functional.
Series [6] has as its system Pseudomonas. Nature of the series: Antibacterial activity against […] after 24 hr by broth dilution method. It counts as functional.
Series [7] concerns Escherichia coli. The series is described as follows: Antibacterial activity against Escherichia coli after 24 hr by broth dilution method. It counts as functional.
Series [8] has as its system Pseudomonas aeruginosa. The series is described as follows: Antibacterial activity against Pseudomonas aeruginosa after 24 hr by broth dilution method. It counts as functional.

Converted amounts (≈) assume the structure as drawn. Where only a bound is given, the exact number is not on record here.

Consider `Cc1c(/N=C/c2ccccc2)c(=O)n(-c2ccccc2)n1C`, for which the zone of inhibition at 100 µg/mL was under 5 mm with Pseudomonas aeruginosa [1], 10 mm with Pseudomonas [2], under 5 mm in the series on Escherichia coli [3] and over 15 mm in the series on Staphylococcus aureus [4]. Besides, the Activity entry in the series filed under Mus musculus is “Non-toxic”.
`Cc1c(/N=C/c2ccccc2Cl)c(=O)n(-c2ccccc2)n1C`: the zone of inhibition at 100 µg/mL in the series on Pseudomonas aeruginosa [1], in the series with Pseudomonas [2], in the series on Escherichia coli [3] and in the series on Staphylococcus aureus [4] was over 15 mm throughout. For the same compound, the MIC against Staphylococcus aureus [5] came to 75 µg/mL (≈ 230 µM); with Pseudomonas [6] it was 100 µg/mL (≈ 307 µM); in the series with Escherichia coli [7], 100 µg/mL (≈ 307 µM); against Pseudomonas aeruginosa [8], 100 µg/mL (≈ 307 µM). Besides, the Activity result in the series filed under Mus musculus was “Non-toxic”.
On to `CC1(C)S[C@@H]2[C@H](NC(=O)[C@H](N)c3ccccc3)C(=O)N2[C@H]1C(=O)O` [AMPICILLIN], for which the zone of inhibition at 100 µg/mL was over 15 mm in the series with Pseudomonas aeruginosa [1], 10 mm in the series on Pseudomonas [2], 10 mm with Escherichia coli [3] and over 15 mm in the series on Staphylococcus aureus [4]. The MIC against Staphylococcus aureus [5], against Pseudomonas [6], against Escherichia coli [7] and in the series with Pseudomonas aeruginosa [8] was 25 µg/mL (≈ 71.5 µM) in each case. In addition, the Activity result in the series filed under Mus musculus is “Non-toxic”.
`[H]/N=C(/N)N[C@H]1[C@H](O)[C@@H](O)[C@H](O[C@@H]2O[C@@H](C)[C@](O)(C=O)[C@H]2O[C@@H]2O[C@@H](CO)[C@H](O)[C@@H](O)[C@@H]2NC)[C@@H](N/C(N)=N\[H])[C@@H]1O` [STREPTOMYCIN]: the zone of inhibition at 100 µg/mL in the series with Pseudomonas aeruginosa [1], in the series with Pseudomonas [2], in the series on Escherichia coli [3] and in the series on Staphylococcus aureus [4] was over 15 mm each time. Moreover, the Activity entry in the series listed under Mus musculus is “Non-toxic”.
Consider `Cc1c(/N=C/c2cccc([N+](=O)[O-])c2)c(=O)n(-c2ccccc2)n1C`, for which the zone of inhibition at 100 µg/mL is under 5 mm with Pseudomonas aeruginosa [1], under 5 mm in the series with Pseudomonas [2], 5 mm in the series on Escherichia coli [3] and 5 mm in the series with Staphylococcus aureus [4]. Moreover, the Activity entry in the series listed under Mus musculus is on record as “Non-toxic”.
`Cc1c(/N=C/c2ccco2)c(=O)n(-c2ccccc2)n1C`: the zone of inhibition at 100 µg/mL in the series with Pseudomonas aeruginosa [1], with Pseudomonas [2], in the series on Escherichia coli [3] and with Staphylococcus aureus [4] was over 15 mm in each case. In addition, the MIC in the series on Staphylococcus aureus [5] stood at 50 µg/mL (≈ 178 µM); in the series with Pseudomonas [6], 75 µg/mL (≈ 267 µM); with Escherichia coli [7] it was 75 µg/mL (≈ 267 µM); with Pseudomonas aeruginosa [8], 75 µg/mL (≈ 267 µM). Further, the Activity entry in the series listed under Mus musculus was “Non-toxic”.
Turning to `Cc1c(/N=C/c2ccc(Cl)cc2)c(=O)n(-c2ccccc2)n1C`, the zone of inhibition at 100 µg/mL in the series with Pseudomonas aeruginosa [1] was 5 mm; in the series with Pseudomonas [2], under 5 mm; in the series on Escherichia coli [3], under 5 mm; in the series on Staphylococcus aureus [4] it was 10 mm. For the same compound, in the series listed under Mus musculus, the Activity entry is on record as “Non-toxic”.
`Cc1c(/N=C/c2ccccc2[N+](=O)[O-])c(=O)n(-c2ccccc2)n1C`: the zone of inhibition at 100 µg/mL was 5 mm in the series with Pseudomonas aeruginosa [1], under 5 mm with Pseudomonas [2], under 5 mm in the series with Escherichia coli [3] and 10 mm in the series with Staphylococcus aureus [4]. Also, in the series listed under Mus musculus, the Activity result was “Non-toxic”.
On to `COc1ccc(/C=N/c2c(C)n(C)n(-c3ccccc3)c2=O)cc1`, for which the zone of inhibition at 100 µg/mL is under 5 mm with Pseudomonas aeruginosa [1], 10 mm in the series on Pseudomonas [2], 5 mm in the series on Escherichia coli [3] and 5 mm with Staphylococcus aureus [4]. The Activity result in the series filed under Mus musculus is on record as “Non-toxic”.
On to `Cc1c(/N=C/c2ccc(O)cc2)c(=O)n(-c2ccccc2)n1C`, for which the zone of inhibition at 100 µg/mL in the series with Pseudomonas aeruginosa [1] was 5 mm; in the series with Pseudomonas [2], under 5 mm; in the series with Escherichia coli [3] it was 5 mm; in the series on Staphylococcus aureus [4], 10 mm. In addition, the Activity result in the series listed under Mus musculus is on record as “Non-toxic”.
For the compound `Cc1c(/N=C/c2ccccc2O)c(=O)n(-c2ccccc2)n1C`, the zone of inhibition at 100 µg/mL in the series with Pseudomonas aeruginosa [1] is 10 mm; in the series with Pseudomonas [2] it was over 15 mm; in the series with Escherichia coli [3] it was over 15 mm; in the series on Staphylococcus aureus [4], over 15 mm. The MIC in the series with Staphylococcus aureus [5] was found to be 50 µg/mL (≈ 163 µM); in the series on Pseudomonas [6], 75 µg/mL (≈ 244 µM); against Escherichia coli [7] it was 75 µg/mL (≈ 244 µM); against Pseudomonas aeruginosa [8], 100 µg/mL (≈ 325 µM). Further, the Activity entry in the series filed under Mus musculus is given as “Non-toxic”.

The values above are taken from ChEMBL document CHEMBL3045543, “Predictions and correlations of structure activity relationship of some aminoantipyrine derivatives on the basis of theoretical and experimental ground” (Med Chem Res, 2012).
